Measurements: PMC11249646, “Small-Molecule Disruptors of the Interaction between Calcium- and Integrin-Binding Protein 1 and Integrin αIIbβ3 as Novel Antiplatelet Agents” (ACS Pharmacology & Translational Science, 2024)
Like-named read-outs stand apart in the source and are kept apart here.

Columns and labels:
[1] = molecular target: T1, CIB1 and αIIb interaction (CIB1-GST : F-αIIb peptide) (Homo sapiens, UniProt Q99828); assay: FP assay, 1536-well qHTS format (primary and confirmatory screen); assay type: binding; conditions: for Curve Class (confirmatory screen) / CONFIRMATORY SCREEN Curve Class: qHTS curve class
T1 construct: made in house; host or cells: BL-21 plus RIL cells (E. coli)
T1 sequence (Q99828 1-191): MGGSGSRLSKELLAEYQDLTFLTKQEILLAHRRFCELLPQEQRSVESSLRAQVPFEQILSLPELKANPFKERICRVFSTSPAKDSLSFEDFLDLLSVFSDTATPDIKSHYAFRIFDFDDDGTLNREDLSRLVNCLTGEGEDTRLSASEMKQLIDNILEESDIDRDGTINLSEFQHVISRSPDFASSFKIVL

[2] = molecular target: T2, GST-CIB1 : F-scrambled peptide (Homo sapiens, UniProt Q99828); assay: FP scrambled-peptide counter screen, 1536-well format; assay type: binding; conditions: for IC50: read-out: IC50 [μM] (counterscreen); for Curve Class (counterscreen) / COUNTERSCREEN Curve Class: qHTS curve class
T2 construct: made in house; host or cells: BL-21 plus RIL cells (E. coli)
T2 sequence (Q99828 1-191): T1 sequence (Q99828 1-191)

[3] = Table S3, confirmatory screen, a negative sign marks inhibitory curves
[4] = Table S3, confirmatory screen, negative = inhibition
[5] = qHTS FP screen hits, Table S2, negative = inhibition
[6] = Table S3, counterscreen, negative = inhibition
[7] = confirmatory screen, negative sign = inhibitory curve
[8] = qHTS primary screen hits, Table S2, negative = inhibition
[9] = qHTS primary screen hits, Table S2, negative sign = inhibitory curve, several classes where COUNT > 1
[10] = qHTS primary screen hits, Table S2, read-out: IC50
[11] = counterscreen, negative sign = inhibitory curve
[12] = Table S3, confirmatory screen, YES/NO call
[13] = Table S3, confirmatory screen, read-out: IC50 [μM] (confirmatory screen)
[14] = Table S3, counterscreen, a negative sign marks inhibitory curves
[15] = qHTS FP screen hits, Table S2, one class per curve where COUNT > 1, negative sign = inhibitory curve
[16] = qHTS FP screen hits, Table S2, read-out: IC50
[17] = confirmatory screen, read-out: IC50 [μM] (confirmatory screen)
[18] = scrambled-peptide counterscreen

Curve Class (confirmatory screen) [1, 3]	Efficacy (%) (confirmatory screen) [1, 4]	Efficacy (%) [1, 5] [%]	Efficacy (%) (counterscreen) [2, 6]	IC50 ([2]; Table S3, counterscreen) [µM]	Efficacy (%) (confirmatory screen) ([1]; confirmatory screen)	Confirm? (confirmatory screen) ([1]; confirmatory screen, YES/NO)	Curve Class (confirmatory screen) [1, 7]	Efficacy (%) [1, 8] [%]	Curve Class [1, 9]	IC50 [1, 10] [µM]	Efficacy (%) (counterscreen) ([2]; counterscreen)	Curve Class (counterscreen) [2, 11]	IC50 ([2]; counterscreen) [µM]	Confirm? (confirmatory screen) [1, 12]	Curve Class (counterscreen) [2, 14]	Curve Class [1, 15]	IC50 [1, 16] [µM]	Structure (SMILES)	further results
–	–	–	–	–	-75	YES	-3	-66	-2.2	79.4	-57	-3	50.1	–	–	–	–	O=C1Nc2cc(Cl)ccc2Nc2cscc21 [NCGC00167991-01]	–
-3	-58	–	-67	79.4	–	–	–	-56	-2.2	50.1	–	–	–	YES	-3	–	–	COC(=O)c1scc2c(O)cc(C(F)(F)F)nc12 [NCGC00168006-01]	IC50 [1, 13]: 70.8 µM
-2.4	-89	–	-83	50.1	–	–	–	–	–	–	–	–	–	YES	-2.1	–	–	COc1c(O)cccc1[C@H](O)C1CCN(CCc2ccc(F)cc2)CC1 [NCGC00168042-01]	IC50 [1, 13]: 50.1 µM
-2.1	-118	-100	-136	31.6	–	–	–	–	–	–	–	–	–	YES	-2.1	-2.1	39.8	CN1CCc2ccc3c4c2[C@]1(C)Cc1cccc(c1-4)OCO3 [NCGC00168048-01]	–
-2.4	-49	–	-54	50.1	–	–	–	-29	-2.4	31.6	–	–	–	YES	-2.4	–	–	O=C(NC1=CC(=O)[C@H]2O[C@H]2C1=O)c1ccccc1O [NCGC00168093-01]	IC50 [1, 13]: 56.2 µM
–	–	-55	–	–	-86	YES	-2.1	–	–	–	93	3	100	–	–	-1.2	22.4	CCCCC(CC)CNC(=N)NC(=N)NCCCCCCNC(=N)NC(=N)NCC(CC)CCCC.Cl.Cl.Cl (stereo not drawn) [NCGC00178352-06]	IC50 [1, 17]: 28.2 µM; Confirm? (counterscreen) ([2]; counterscreen, YES/NO): YES
-1.2	-44	-33	-44	8.9	–	–	–	–	–	–	–	–	–	YES	-1.2	-1.2	10	C[C@@H]1CC[C@]2(C)C3(C)CC[C@@]2(OC3=O)[C@@]12C[C@H](c1ccoc1)OC2=O [NCGC00180662-03]	IC50 [1, 13]: 7.1 µM
4	-25	–	-28	–	–	–	–	-24	-2.4	22.4	–	–	–	–	4	–	–	O=C(NNC(=O)c1nc2ccccc2[nH]1)OCc1ccccc1 [NCGC00181216-01]	–
–	–	–	–	–	–	–	–	-37	–	39.8	–	–	–	–	–	–	–	CC(C)(C)OC(=O)CC(=O)NNC(=O)c1nc2ccccc2[nH]1 [NCGC00181234-01]	CONFIRMATORY SCREEN Efficacy (%) ([1]; confirmatory screen): -10%; CONFIRMATORY SCREEN Curve Class ([1]; confirmatory screen): 4; Curve Class ([1]; qHTS primary screen hits, Table S2, negative sign = inhibitory curve): -2.4; COUNTERSCREEN Efficacy (%) ([2]; counterscreen): -21%; COUNTERSCREEN Curve Class ([2]; counterscreen): 4
–	–	–	–	–	-72	YES	-2.2	-38	-2.4	39.8	-83	-2.2	44.7	–	–	–	–	Cc1cc2nc3ccc(N(C)C)cc3[s+]c2cc1N.Cl.[Cl-] [NCGC00181775-02]	IC50 [1, 17]: 22.4 µM
4	-21	-24	-14	–	–	–	–	–	–	–	–	–	–	–	4	–	11.2	Cc1ccccc1NC(=O)CN1C(=O)N/C(=C\c2cn(-c3cccc(C(=O)O)c3)cn2)C1=O [NCGC00182400-01]	–
–	–	–	–	–	–	–	–	-32	-1.4	2.2	–	–	–	–	–	–	–	O=S(=O)(c1ccc2nc(Cl)c(Cl)nc2c1)N1CCN(S(=O)(=O)c2c(F)cccc2F)CC1 [NCGC00182436-01]	CONFIRMATORY SCREEN Confirm? ([1]; confirmatory screen, YES/NO call): YES; CONFIRMATORY SCREEN Curve Class [1, 7]: -1.4; CONFIRMATORY SCREEN Efficacy (%) ([1]; confirmatory screen, negative = inhibition): -43%; IC50 ([1]; confirmatory screen, read-out: CONFIRMATORY SCREEN IC50): 5.6 µM; COUNTERSCREEN Efficacy (%) [2, 18]: -18%; COUNTERSCREEN Confirm? ([2]; scrambled-peptide counterscreen, YES/NO call): YES; COUNTERSCREEN Curve Class [2, 18]: 4
–	–	-66	–	–	-109	YES	-2.1	–	–	–	-61	-2.2	56.2	–	–	-2.2	–	O=C(O)c1ccc(-n2cccc2/C=C2\SC(=O)N(Cc3cccc(Cl)c3)C2=O)cc1 [NCGC00182735-01]	–
4	-33	–	-77	12.6	–	–	–	-34	-2.4	35.5	–	–	–	–	-1.2	–	–	C/C(=C\c1ccc2c(c1)OCO2)C1Nc2cccc3cccc(c23)N1 [NCGC00182904-03]	Confirm? (counterscreen) ([2]; Table S3, counterscreen, YES/NO call): YES
-2.1	-92	–	-136	35.5	–	–	–	-67	-2.2	50.1	–	–	–	YES	-2.1	–	–	COc1ccccc1Nc1cc2ccccc2c(O)n1 [NCGC00183215-01]	IC50 [1, 13]: 39.8 µM

Structure (SMILES)	Curve Class (confirmatory screen) [1, 3]	Efficacy (%) (confirmatory screen) [1, 4]	Efficacy (%) [1, 5] [%]	Efficacy (%) (counterscreen) [2, 6]	IC50 ([2]; Table S3, counterscreen) [µM]	Efficacy (%) (confirmatory screen) ([1]; confirmatory screen)	Confirm? (confirmatory screen) ([1]; confirmatory screen, YES/NO)	Curve Class (confirmatory screen) [1, 7]	Efficacy (%) [1, 8] [%]	Curve Class [1, 9]	IC50 [1, 10] [µM]	Efficacy (%) (counterscreen) ([2]; counterscreen)	Curve Class (counterscreen) [2, 11]	IC50 ([2]; counterscreen) [µM]	Confirm? (confirmatory screen) [1, 12]	Curve Class (counterscreen) [2, 14]	Curve Class [1, 15]	IC50 [1, 16] [µM]	further results
Cc1cc(C(C#N)c2ccc(Cl)cc2)c(Cl)cc1NC(=O)c1cc(I)cc(I)c1O (stereo not drawn) [NCGC00166312-02]	4	-32	-35	117	31.6	–	–	–	–	–	–	–	–	–	–	–	–	–	IC50 ([1]; IC50 [μM], qHTS FP screen hits, Table S2): 27 µM
CNc1ccc(C(=O)Oc2cc(ON=[N+]([O-])N(C)C)c([N+](=O)[O-])cc2[N+](=O)[O-])cc1 [NCGC00168169-02]	–	–	-30	–	–	-42	YES	-1.2	–	–	–	-40	-2.2	39.8	–	–	-1.2	22.4	IC50 [1, 17]: 14.1 µM
CC1=C(O)C(=O)C=C2C1=CC=C1[C@@]2(C)CC[C@@]2(C)[C@@H]3C[C@](C)(C(=O)O)CC[C@]3(C)CC[C@]12C [NCGC00178913-04]	–	–	-84	–	–	-135	YES	-1.1	–	–	–	-107	-2.1	44.7	–	–	-3	34.1	IC50 [1, 17]: 22.4 µM
